Assay results from the NIST ThermoML archive (doi:10.1016/j.jct.2011.06.016).
Numbers after ± are expanded uncertainties.

Experiment: refractive index (Na D-line) (dimensionless)
Details: 101.33 kPa, Liquid, Standard Abbe refractometry

Structure (SMILES)	refractive index (298.15 K)	refractive index (313.15 K)
CCO [ethanol]	1.3625 ± 0.0007	–
CCCCCCCCCCCCCCCCCC(=O)OCC [ethyl octadecanoate]	–	1.436 ± 0.001
CCCCCCCCCCCCCCCC(=O)OCC [ethyl hexadecanoate]	1.437 ± 0.001	–

Now from value to molecule:

refractive index (298.15 K)	refractive index (313.15 K)	Structure (SMILES)
1.471 ± 0.001	–	OCC(O)CO [glycerol]
1.333 ± 0.001	–	O [water]
